Measured values reported in ChEMBL document CHEMBL1136821, “Modelling of carbonic anhydrase inhibitory activity of sulfonamides using molecular negentropy” (Bioorg Med Chem Lett, 2003).

What was measured:
[1] = target: T1, Carbonic anhydrase 4 (Bos taurus, UniProt Q95323); experiment: Inhibition of bovine carbonic anhydrase IV (CAIV)
T1 sequence (Q95323 whole entry): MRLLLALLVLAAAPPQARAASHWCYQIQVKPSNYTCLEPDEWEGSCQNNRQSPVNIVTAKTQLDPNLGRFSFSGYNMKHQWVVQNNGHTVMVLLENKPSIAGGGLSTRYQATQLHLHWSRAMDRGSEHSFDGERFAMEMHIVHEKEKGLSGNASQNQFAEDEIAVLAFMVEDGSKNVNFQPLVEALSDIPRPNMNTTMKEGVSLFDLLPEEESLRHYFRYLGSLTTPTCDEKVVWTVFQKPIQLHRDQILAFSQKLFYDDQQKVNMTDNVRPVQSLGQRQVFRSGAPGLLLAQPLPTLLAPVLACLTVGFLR

[2] = target: Carbonic anhydrase 1 (Homo sapiens, UniProt P00915); experiment: Inhibition of human carbonic anhydrase I (CAI)
Chain of Carbonic anhydrase 1 (P00915 whole entry): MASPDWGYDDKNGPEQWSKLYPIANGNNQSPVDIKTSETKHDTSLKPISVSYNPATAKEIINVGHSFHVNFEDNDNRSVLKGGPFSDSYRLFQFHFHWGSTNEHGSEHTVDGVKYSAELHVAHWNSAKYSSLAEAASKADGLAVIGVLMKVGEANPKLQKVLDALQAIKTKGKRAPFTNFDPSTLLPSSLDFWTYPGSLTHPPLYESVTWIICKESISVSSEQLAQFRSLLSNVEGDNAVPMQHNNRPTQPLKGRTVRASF

[3] = target: Carbonic anhydrase 2 (Homo sapiens, UniProt P00918); experiment: Inhibition of human carbonic anhydrase II (CAII)

Row | Ki [1] [nM] | Ki [2] [nM] | Ki [3] [nM] | Structure (SMILES)
1 | 300 | 21500 |  | NS(=O)(=O)c1ccc(NC(=O)c2cccc(C(=O)O)n2)cc1
2 | 55 | 450 | 10 | NS(=O)(=O)c1cc(S(N)(=O)=O)c(NC(=O)c2cccc(C(=O)O)n2)c(Cl)c1NC(=O)c1cccc(C(=O)O)n1
3 | 170 | 15500 | 132 | NS(=O)(=O)c1ccc(C(=O)c2cccc(C(=O)O)n2)cc1
4 | 75 | 605 |  | NS(=O)(=O)c1ccc(C(=O)c2cccc(C(=O)O)n2)c(Br)c1
5 | 79 |  |  | NS(=O)(=O)c1ccc(CC(=O)c2cccc(C(=O)O)n2)cc1
6 | 60 | 600 | 8.99 | NS(=O)(=O)c1cc(S(N)(=O)=O)c(C(=O)c2cccc(C(=O)O)n2)cc1Cl
7 | 305 | 20000 | 250 | NS(=O)(=O)c1cccc(C(=O)c2cccc(C(=O)O)n2)c1
8 | 120 | 2040 | 20 | NS(=O)(=O)c1ccc(CON2C(=O)c3cccnc3C2=O)cc1
9 | 54 | 906 | 8.99 | NS(=O)(=O)c1ccc(CCC(=O)c2cccc(C(=O)O)n2)cc1
10 | 69 | 500 | 12 | NS(=O)(=O)c1cc(S(N)(=O)=O)c(C(=O)c2cccc(C(=O)O)n2)c(Cl)c1C(=O)c1cccc(C(=O)O)n1
11 | 175 | 6100 |  | Nc1c(S(N)(=O)=O)cc(S(N)(=O)=O)c(N)c1Cl
12 | 105 | 2000 | 15 | NS(=O)(=O)c1ccc(CCON2C(=O)c3cccnc3C2=O)cc1
13 | 70 | 610 | 33 | NS(=O)(=O)c1ccc(C(=O)c2cccc(C(=O)O)n2)c(I)c1
14 | 310 | 21000 | 280 | NS(=O)(=O)c1ccccc1C(=O)c1cccc(C(=O)O)n1
15 | 46 | 540 | 10 | NS(=O)(=O)c1ccc(C(=O)c2cccc(C(=O)O)n2)c(F)c1
16 | 79 | 620 | 44 | NS(=O)(=O)c1ccc(C(=O)c2cccc(C(=O)O)n2)c(Cl)c1
